Entries after “also recorded” stand apart in the source; their conditions may differ.
System: TFEB
Test: TFEB nuclear translocation in TFEB-GFP HeLa cells
Assay type: cell-based
Settings: 4 hrs
Method: FIG. 3A is the graph showing the percentage of nuclear translocated TFEB for which TFEB-GFP HeLa cells were treated with MSL compound for 4 hrs and then nuclei of the cells were stained with DAPI. FIG. 3B is the results of the experiments in which HeLa cells were incubated in the presence of MSL compound or vehicle control for 24 hrs and then the acidic vesicular organelles formed were stained with acridine orange. FIG. 3C is the results of the experiments in which TFEB-GFP HeLa cells were treated with MSL compound or vehicle control for 4 hrs and then the cells were immunoblotted with the antibodies indicated. FIG. 3D and FIG. 3E is the result of measuring the calcineurin activity in the lysates of Hepa1c1c7 cells treated with the compounds indicated. Error bars, S.D. **, P<0.01;***, P<0.001.
FIG. 10 is the result of the experiments using compound of formula 2 (hereinafter referred to as MSL-7) of the present disclosure as an autophagic enhancer. FIG. 10A is the result of immuneblot using the antibodies indicated using Hela cells treated with MSL or MSL-7. FIG. 10B is the result of measuring the viability of Hela cells treated with vehicle control or various concentration of MSL-7 (50-100 μM) for 48 hrs. FIG. 10C is the result of DAPI stained nuclei of TFEB-GFP HeLa cells which were treated with vehicle control or MSL-7 for 4 hrs. The graph indicates the percentage of TFEB translocated into the nuclei. Error bars, S.D. *, P<0.05; **, P<0.01; ***, P<0.001.
Screening of autophagy enhancer. […] Luciferase assay. […] Firefly luciferase was determined after mixing 5 μl of lysate with 25 μl of Luciferase Assay Reagent II. Renilla luciferase was then determined after further addition of 20 ul of Stop&Glo Reagent. […] Cytotoxicity was determined by the measurement of LDH release in cell culture media using the LDH kit (Roche), according to the protocol from the manufacturer. […] Imaging and image quantification. […] Formation of acidic vesicular organelles was quantitated by staining the cells with acridine orange (Invitrogen, 5 ug/ml, 10 min). […]

Structure (SMILES)	TFEB nuclear translocation	percentage of nuclei showing TFEB positivity (compared to untreated cells)
COc1oc(-c2ccccc2Cl)nc1S(=O)(=O)c1ccccc1 [MSL-7, 2-(2-chlorophenyl)-5-methoxy-4-(phenylsulfonyl) oxazole]	induced nuclear translocation of TFEB; also recorded: in a dose-dependent manner	
CSc1oc(-c2ccccc2)nc1S(=O)(=O)c1ccc(F)cc1 [MSL]	translocated to the nuclei in the majority of MSL-treated HeLa cells	greatly increased
